Patent US6835382B2, “Ii peptide therapeutics to enhance antigen presentation” (University of Massachusetts, priority 1996, dated 2004)
Non-standard residues stand in square brackets, D forms with d. Cit = NC(=O)NCCC[C@H](N)C(=O)O; Orn = NCCC[C@H](N)C(=O)O

How the values were obtained:
[1] = test system: murine E^k MHC class II allele; assay: simultaneous assay, E^k allele (CH27 APC, TPc9.1 T hybridoma, THMCC82-103 or PGCC81-104); type: cell-based; conditions: for Times Baseline Response, Ek: Table 3, values reduced relative to E^d by a factor of 10
Experimental: (§1) Examples 1-4 (Tables 1-18) will be briefly considered in order to establish the concept of tolerance discussed above. These examples describe experimental results observed in the so-called “simultaneous” assay. In the simultaneous assay four principle components are cultured together for a 24 hour period. The components of this culture, which are added simultaneously, are: (a) an antigenic peptide characterized by the ability to bind specifically into the antigenic peptide binding groove of an MHC class II molecule, (b) mitomycin C-treated, MHC class II-positive antigen presenting cells (APC) bearing the MHC class II allele required for binding of the specific antigenic peptide, and presentation of the specific antigenic peptide to the antigenic peptide-specific T cell hybridoma, (c) an effector compound of the present invention, and (d) an MHC class II allele-restricted T cell hybridoma specific for the antigenic peptide and the MHC class II allele restricting its presentation. Following incubation of this primary culture, an aliquot of its supernatant is transferred into a second culture well for incubation with an interleukin-dependent lymphoblastoid cell line. The degree of stimulation of that second, indicator cell by the interleukins which had been released from the activated T cell hybridoma in the primary culture is measured by quantitating tritiated thymidine deoxyribose {[^3H]TdR} uptake into the DNA of the HT-2 indicator cells of that second culture.
(§2) In the “simultaneous assay” the four components of the assay are cultured together for a 24 h period. The components of this primary culture, added at the same time or simultaneously, are: (a) the antigenic peptide, (b) mitomycin C-treated, MHC class II-positive antigen presenting cells (APC) with the MHC class II allele required for binding of the specific antigenic peptide and its presentation to the antigenic peptide-specific T cell hybridoma, (c) an AE101 series effector peptide, and (d) MHC class II allele-restricted T cell hybridoma specific for the antigenic peptide and the MHC class II allele restricting its presentation. At the end of the incubation of this primary culture, an aliquot of its supernatant is transferred into a second culture well for incubation with an interleukin-dependent lymphoblastoid cell line. The degree of stimulation of that second, indicator cell by the interleukins which had been released from the activated T cell hybridoma in the primary culture is measured by quantitating tritiated thymidine deoxyribose {[^3H]TdR} uptake into the DNA of the HT-2 indicator cells of that second culture.
(§3) For these various assays, the following antigenic peptides were used: HEL11-25, hen egg lysozyme 11-25, AMKRHGLDNYRGYSL(A^d) (SEQ ID NO:5); HEL46-61, hen egg lysozyme 46-61, NTDGSTDYGILQINSR(Ak) (SEQ ID NO:6); HEL106-116, hen egg lysozyme 106-116, NAWVAWRNRCK (E^d) (SEQ ID NO:7); PGCC81-104, pigeon cytochrome c 81-104, […] (Ek) (SEQ ID NO:8), and THMCC82-103, tobacco hornworm moth cytochrome c 82-103, […] (Ek) (SEQ ID NO:9). AE101 series peptides were obtained from commercial sources. In general, the purity and composition of each peptide was confirmed by HPLC separation and mass spectrometry. The native protein antigens were HEL, hen egg lysozyme, and PGCC, pigeon cytochrome C. They were obtained from commercial sources.
(§4) For the experiments of these Examples, several T cell hybridomas, which are specific for certain antigenic peptides, were used. The TPc9.1 T hybridoma is specific for pigeon cytochrome C 81-104 peptide presented on the murine class II MHC allele E^k. The TPc9.1 hybridoma responds heteroclitically to tobacco hornworm moth cytochrome c 82-103 on E^k. The 3A9 T hybridoma is specific for hen egg lysozyme 46-61 on A^k. The 9.30.B2 hybridoma is specific for hen egg lysozyme 11-25 on A^d, and the G28.C9 hybridoma is specific for hen egg lysozyme 106-116 on E^d. […]

[2] = molecular target: T1, murine E^d MHC class II allele (Mus musculus, UniProt P01904+P01915); assay: simultaneous assay, E^d allele (A20 APC, G28.C9 T hybridoma, HEL106-116; HT-2 [3H]TdR readout); type: cell-based; set-up: The A20 and CH27 B cell lymphoma lines express H-2^d and H-2^k alleles, respectively; endogenous in cells; host or cells: A20 B cell lymphoma (mitomycin C-treated or paraformaldehyde-fixed); conditions: for Times Baseline Response, Ed: Table 3
T1 sequence (P01904 26-255): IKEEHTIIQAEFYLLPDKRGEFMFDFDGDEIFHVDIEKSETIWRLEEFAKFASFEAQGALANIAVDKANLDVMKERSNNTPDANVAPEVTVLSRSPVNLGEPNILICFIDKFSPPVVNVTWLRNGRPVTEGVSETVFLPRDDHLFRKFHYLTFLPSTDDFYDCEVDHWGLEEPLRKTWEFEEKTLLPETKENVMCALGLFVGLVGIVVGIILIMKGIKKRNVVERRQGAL
T1 sequence (P01915 27-264 limits assumed): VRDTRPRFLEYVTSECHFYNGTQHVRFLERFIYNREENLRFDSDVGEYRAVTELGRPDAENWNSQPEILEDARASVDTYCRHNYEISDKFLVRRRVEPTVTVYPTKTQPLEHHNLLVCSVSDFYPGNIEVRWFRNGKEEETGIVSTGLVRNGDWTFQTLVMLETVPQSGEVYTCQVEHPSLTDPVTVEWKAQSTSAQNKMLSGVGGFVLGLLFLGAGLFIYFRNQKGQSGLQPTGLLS
Experimental: as §1, §2, §3, §4

[3] = Table 6, AE peptide 64 μM, supernatant 1:4, reduced by a factor of 5
[4] = Table 6, AE peptide 64 μM, supernatant 1:4
[5] = AE peptide 64 μM, supernatant 1:4
[6] = Table 9, AE peptide 64 μM, supernatant 1:4, normalized by a factor of 5
[7] = Table 9, AE peptide 64 μM, supernatant 1:4
[8] = Table 12, AE peptide 1 μM (fourth value), supernatant 1:4
[9] = Table 12, AE peptide 4 μM (third value), supernatant 1:4
[10] = Table 12, AE peptide 16 μM (second value), supernatant 1:4
[11] = Table 12, AE peptide 64 μM (first value), supernatant 1:4
[12] = Table 12, AE peptide 1 μM (fourth value), supernatant 1:2
[13] = Table 12, AE peptide 4 μM (third value), supernatant 1:2
[14] = Table 12, AE peptide 16 μM (second value), supernatant 1:2
[15] = Table 12, AE peptide 64 μM (first value), supernatant 1:2
[16] = Table 1, AE peptide 16 μM (second value), 0.075 μM THMCC82-103, supernatant 1:2
[17] = Table 1, AE peptide 64 μM (first value), 0.075 μM THMCC82-103, supernatant 1:2
[18] = Table 1, AE peptide 16 μM (second value), 0.4 μM HEL106-116, supernatant 1:4
[19] = Table 1, AE peptide 64 μM (first value), 0.4 μM HEL106-116, supernatant 1:4
[20] = Table 5, AE peptide 64 μM, supernatant 1:4, normalized to E^d by a factor of 10
[21] = Table 5, AE peptide 64 μM, supernatant 1:4
[22] = Table 10, AE peptide 64 μM, supernatant 1:2 (first value)
[23] = Table 10, AE peptide 64 μM, supernatant 1:4 (second value)
[24] = Table 10, AE peptide 16 μM (second value), supernatant 1:2
[25] = Table 10, AE peptide 64 μM (first value), supernatant 1:2

## Ac-LRM Y LPK-NH2 [AE219]
[1]; [3]
  Times Baseline Response, E^k: 8.8
[2]; [4]
  Times Baseline Response, E^d: 7.1

## Ac-M RMKLPK-NH2 [AE190]
[1]; [5]
  Times Baseline Response, Ek: 15.2
[2]; [5]
  Times Baseline Response, Ed: 9.8

## Ac-LRMKLP D-NH2 [AE244]
[1]; [6]
  Times Baseline Response, E^k: 2.7
[2]; [7]
  Times Baseline Response, E^d: 0.9

## Ac-LRMKLP E-NH2 [AE245]
[1]; [6]
  Times Baseline Response, E^k: 2.8
[2]; [7]
  Times Baseline Response, E^d: 0.9

## Ac-[Cit]RMKLPK-NH2 [AE181]
[1]; [5]
  Times Baseline Response, Ek: 11.5
[2]; [5]
  Times Baseline Response, Ed: 9.0

## Ac-kplkmrl-NH2 [AE171]
[1]; [8]
  Times Baseline Response, E^k: 1.9
[1]; [9]
  Times Baseline Response, E^k: 1.4
[1]; [10]
  Times Baseline Response, E^k: 2.0
[1]; [11]
  Times Baseline Response, E^k: 3.6
[2]; [12]
  Times Baseline Response, E^d: 1.4
[2]; [13]
  Times Baseline Response, E^d: 1.4
[2]; [14]
  Times Baseline Response, E^d: 1.5
[2]; [15]
  Times Baseline Response, E^d: 1.3
[2]; Tables 12 and 18
  activity in simultaneous assay on E^d and E^k, in words: inactive

## Ac-YRMKLPKS-NH2 [AE112]
[1]; [16]
  Times Baseline Response, E^k: 3.2
[1]; [17]
  Times Baseline Response, E^k: 15.3
[2]; [18]
  Times Baseline Response, E^d: 26.2
[2]; [19]
  Times Baseline Response, E^d: 42.8

## Ac-HArg RMKLPK-NH2 [AE182]
[1]; [5]
  Times Baseline Response, Ek: 26.5
[2]; [5]
  Times Baseline Response, Ed: 18.8

## Ac-LR K KLPK-NH2 [AE199]
[1]; [20]
  Times Baseline Response, E^k: 22.9
[2]; [21]
  Times Baseline Response, E^d: 12.1

## Ac-YRMKAPKSAK-NH2 [AE124]
[1]; [22]
  Times Baseline Response, E^k: 66.0
[1]; [23]
  Times Baseline Response, E^k: 65.9
[2]; [24]
  Times Baseline Response, E^d: 7.3
[2]; [25]
  Times Baseline Response, E^d: 12.5

## Ac-LRMKLP Q-NH2 [AE247]
[1]; [6]
  Times Baseline Response, E^k: 10.9
[2]; [7]
  Times Baseline Response, E^d: 4.5

## Ac-LR Q KLPK-NH2 [AE203]
[1]; [20]
  Times Baseline Response, E^k: 20.5
[2]; [21]
  Times Baseline Response, E^d: 14.1

## Ac-YRMKLPASAK-NH2 [AE126]
[1]; [22]
  Times Baseline Response, E^k: 53.4
[1]; [23]
  Times Baseline Response, E^k: 56.4
[2]; [24]
  Times Baseline Response, E^d: 6.8
[2]; [25]
  Times Baseline Response, E^d: 18.2

## Ac-YRMKLPKSAA-NH2 [AE128]
[1]; [22]
  Times Baseline Response, E^k: 51.9
[1]; [23]
  Times Baseline Response, E^k: 58.6
[2]; [24]
  Times Baseline Response, E^d: 29.5
[2]; [25]
  Times Baseline Response, E^d: 33.0

## Ac-LRMKLpk-NH2 [AE173]
[1]; [8]
  Times Baseline Response, E^k: 2.1
[1]; [9]
  Times Baseline Response, E^k: 4.3
[1]; [10]
  Times Baseline Response, E^k: 25.0
[1]; [11]
  Times Baseline Response, E^k: 51.3
[2]; [12]
  Times Baseline Response, E^d: 2
[2]; [13]
  Times Baseline Response, E^d: 10
[2]; [14]
  Times Baseline Response, E^d: 92
[2]; [15]
  Times Baseline Response, E^d: 123

## Ac-LRMKLP HArg-NH2 [AE242]
[1]; [6]
  Times Baseline Response, E^k: 17.6
[2]; [7]
  Times Baseline Response, E^d: 8.0

## Ac-LRM Q LPK-NH2 [AE217]
[1]; [3]
  Times Baseline Response, E^k: 4.4
[2]; [4]
  Times Baseline Response, E^d: 4.0

## RMKLPKSAKPVSQMR [AE102]
[1]; [16]
  Times Baseline Response, E^k: 0.8
[1]; [17]
  Times Baseline Response, E^k: 1.0
[2]; [18]
  Times Baseline Response, E^d: 4.2
[2]; [19]
  Times Baseline Response, E^d: 13.3

## Ac-YRMKLPKAAK-NH2 [AE127]
[1]; [22]
  Times Baseline Response, E^k: 63.6
[1]; [23]
  Times Baseline Response, E^k: 63.4
[2]; [24]
  Times Baseline Response, E^d: 12.4
[2]; [25]
  Times Baseline Response, E^d: 19.1

## Ac-K RMKLPK-NH2 [AE184]
[1]; [5]
  Times Baseline Response, Ek: 11.8
[2]; [5]
  Times Baseline Response, Ed: 14.1

## Ac-[Orn]RMKLPK-NH2 [AE180]
[1]; [5]
  Times Baseline Response, Ek: 10.8
[2]; [5]
  Times Baseline Response, Ed: 12.6

## Ac-LRMKLP M-NH2 [AE250]
[1]; [6]
  Times Baseline Response, E^k: 21.3
[2]; [7]
  Times Baseline Response, E^d: 13.9

## Ac-N RMKLPK-NH2 [AE187]
[1]; [5]
  Times Baseline Response, Ek: 9.5
[2]; [5]
  Times Baseline Response, Ed: 6.3

## Ac-LRM D LPK-NH2 [AE214]
[1]; [3]
  Times Baseline Response, E^k: 0.4
[2]; [4]
  Times Baseline Response, E^d: 0.8

## Ac-YRMALPKSAK-NH2 [AE123]
[1]; [22]
  Times Baseline Response, E^k: 65.0
[1]; [23]
  Times Baseline Response, E^k: 51.1
[2]; [24]
  Times Baseline Response, E^d: 10.7
[2]; [25]
  Times Baseline Response, E^d: 24.0

## Ac-E RMKLPK-NH2 [AE186]
[1]; [5]
  Times Baseline Response, Ek: 1.3
[2]; [5]
  Times Baseline Response, Ed: 2.5

## Ac-LRM N LPK-NH2 [AE216]
[1]; [3]
  Times Baseline Response, E^k: 3.3
[2]; [4]
  Times Baseline Response, E^d: 2.4

## Ac-LR Y KLPK-NH2 [AE205]
[1]; [20]
  Times Baseline Response, E^k: 27.4
[2]; [21]
  Times Baseline Response, E^d: 13.9

## Ac-YRMKLAKSAK-NH2 [AE125]
[1]; [22]
  Times Baseline Response, E^k: 38.7
[1]; [23]
  Times Baseline Response, E^k: 32.8
[2]; [24]
  Times Baseline Response, E^d: 1.7
[2]; [25]
  Times Baseline Response, E^d: 2.0
